What was measured:
[1] = target: T1, BtGH84 (Bacteroides thetaiotaomicron, UniProt Q89ZI2); test: binding constant; method not stated in main text; settings: read-out: BtGH84 / None
T1 construct: gene BT_4395; recombinant purified enzyme
T1 sequence (Q89ZI2 22-737): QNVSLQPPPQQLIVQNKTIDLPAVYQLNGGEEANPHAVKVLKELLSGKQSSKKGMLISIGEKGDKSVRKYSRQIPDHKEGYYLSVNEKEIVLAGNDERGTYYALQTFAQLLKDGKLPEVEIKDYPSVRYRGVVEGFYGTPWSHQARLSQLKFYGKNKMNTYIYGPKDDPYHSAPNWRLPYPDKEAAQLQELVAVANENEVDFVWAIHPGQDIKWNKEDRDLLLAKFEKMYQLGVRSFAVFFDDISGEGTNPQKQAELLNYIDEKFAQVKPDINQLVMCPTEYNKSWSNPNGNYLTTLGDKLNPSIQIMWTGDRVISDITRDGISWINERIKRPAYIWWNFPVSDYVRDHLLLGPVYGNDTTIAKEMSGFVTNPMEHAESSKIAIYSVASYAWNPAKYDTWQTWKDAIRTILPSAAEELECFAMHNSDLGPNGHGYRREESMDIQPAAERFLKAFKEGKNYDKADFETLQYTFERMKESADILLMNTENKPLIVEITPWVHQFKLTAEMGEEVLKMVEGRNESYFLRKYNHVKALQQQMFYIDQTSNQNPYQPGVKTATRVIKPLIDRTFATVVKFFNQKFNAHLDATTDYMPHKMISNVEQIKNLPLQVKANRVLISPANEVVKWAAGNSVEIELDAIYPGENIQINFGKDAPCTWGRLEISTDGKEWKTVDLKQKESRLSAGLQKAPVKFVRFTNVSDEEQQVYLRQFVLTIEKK
Source text: (§1) binding constant; method not stated in main text on BtGH84

[2] = target: T2, BtGH84 (Bacteroides thetaiotaomicron, UniProt Q89ZI2, C441S/C675S/Y571C); test: binding constant; method not stated in main text; settings: read-out: BtGH84_TM / None
T2 construct: gene BT_4395; recombinant purified enzyme
T2 sequence (Q89ZI2 22-737 C441S/Y571C/C675S): T1 sequence (Q89ZI2 22-737)
Source text: as §1

Compound: CCNC1=N[C@@H]2[C@@H](O)[C@H](O)[C@@H](CO)O[C@@H]2S1 [compound 2, thiamet-G]
- Kd [1]: 50 nM
- Kd [2]: 52 ± 5.7 nM

Source: paper PMC5674511, “Increase of enzyme activity through specific covalent modification with fragments” (Chemical Science, 2017)
